± gives the standard deviation of the averaged measurements.
Columns and labels:
Test in all cases: normalised growth rate inhibition (GR value) relative to DMSO control (GR (1 = untreated growth, 0 = cytostasis, <0 = cytotoxic)); higher = less growth inhibition
Conditions in all cases: 72 h
MDAMB231 = tested on: MDAMB231
Procedure: (§1)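 Breast cancer cell lines (BT-20, Hs 578T, MCF 10A, MCF7, MDA-MB-231, SK-BR-3) were plated in 384-well plates and treated 24 h later with drugs at six concentrations (0.04-10 µM). Viable cells were counted by Hoechst/dead-cell-stain imaging at 0 and 72 h. Counts were normalised to DMSO controls on the same plate to give the relative cell count and the growth-rate inhibition (GR) value; technical plate triplicates were averaged for each biological replicate.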

MCF7 = tested on: MCF7
Procedure: as §1

SKBR3 = tested on: SKBR3
Procedure: as §1

BT20 = tested on: BT20
Procedure: as §1

HS578T = tested on: HS578T
Procedure: as §1

MCF10A = tested on: MCF10A
Procedure: as §1

| Structure (SMILES) | normalised growth rate inhibition (MDAMB231; 0.04 µM) | normalised growth rate inhibition (MDAMB231; 0.12 µM) | normalised growth rate inhibition (MDAMB231; 0.37 µM) | normalised growth rate inhibition (MDAMB231; 1.11 µM) | normalised growth rate inhibition (MDAMB231; 3.33 µM) | normalised growth rate inhibition (MDAMB231; 10 µM) | normalised growth rate inhibition (MCF7; 0.04 µM) | normalised growth rate inhibition (MCF7; 0.12 µM) | normalised growth rate inhibition (MCF7; 0.37 µM) | normalised growth rate inhibition (MCF7; 1.11 µM) | normalised growth rate inhibition (MCF7; 3.33 µM) | normalised growth rate inhibition (MCF7; 10 µM) | normalised growth rate inhibition (SKBR3; 0.04 µM) | normalised growth rate inhibition (SKBR3; 0.12 µM) | normalised growth rate inhibition (SKBR3; 0.37 µM) | normalised growth rate inhibition (SKBR3; 1.11 µM) | normalised growth rate inhibition (SKBR3; 3.33 µM) | normalised growth rate inhibition (SKBR3; 10 µM) | normalised growth rate inhibition (BT20; 0.04 µM) | normalised growth rate inhibition (BT20; 0.12 µM) | normalised growth rate inhibition (BT20; 0.37 µM) | normalised growth rate inhibition (BT20; 1.11 µM) | normalised growth rate inhibition (BT20; 3.33 µM) | normalised growth rate inhibition (BT20; 10 µM) | normalised growth rate inhibition (HS578T; 0.04 µM) | normalised growth rate inhibition (HS578T; 0.12 µM) | normalised growth rate inhibition (HS578T; 0.37 µM) | normalised growth rate inhibition (HS578T; 1.11 µM) | normalised growth rate inhibition (HS578T; 3.33 µM) | normalised growth rate inhibition (HS578T; 10 µM) | normalised growth rate inhibition (MCF10A; 0.04 µM) | normalised growth rate inhibition (MCF10A; 0.12 µM) | normalised growth rate inhibition (MCF10A; 0.37 µM) | normalised growth rate inhibition (MCF10A; 1.11 µM) | normalised growth rate inhibition (MCF10A; 3.33 µM) | normalised growth rate inhibition (MCF10A; 10 µM) |
| --- | --- | --- | --- | --- | --- | --- | --- | --- | --- | --- | --- | --- | --- | --- | --- | --- | --- | --- | --- | --- | --- | --- | --- | --- | --- | --- | --- | --- | --- | --- | --- | --- | --- | --- | --- | --- |
| C#Cc1cccc(Nc2ncnc3cc(OCCOC)c(OCCOC)cc23)c1 [erlotinib] | 0.9 ± 0.058 | 0.937 ± 0.032 | 0.953 ± 0.035 | 0.962 ± 0.036 | 0.969 ± 0.016 | 0.641 ± 0.069 | 0.858 ± 0.069 | 0.899 ± 0.074 | 1.02 ± 0.024 | 1.06 ± 0.047 | 1.04 ± 0.04 | 0.927 ± 0.074 | 0.756 ± 0.077 | 0.885 ± 0.06 | 0.946 ± 0.085 | 0.911 ± 0.072 | 0.868 ± 0.08 | 0.165 ± 0.12 | 0.861 ± 0.025 | 0.879 ± 0.049 | 0.902 ± 0.068 | 0.834 ± 0.032 | 0.856 ± 0.049 | 0.547 ± 0.057 | 0.973 ± 0.015 | 0.965 ± 0.023 | 0.957 ± 0.012 | 0.945 ± 0.019 | 0.918 ± 0.016 | 0.586 ± 0.073 | 0.973 ± 0.013 | 0.829 ± 0.14 | 0.432 ± 0.17 | 0.107 ± 0.053 | 0.132 ± 0.065 | 0.136 ± 0.036 |
| COc1cc2c(Oc3ccc(NC(=O)C4(C(=O)Nc5ccc(F)cc5)CC4)cc3F)ccnc2cc1OCCCN1CCOCC1 [foretinib] | 0.91 ± 0.037 | 0.615 ± 0.012 | 0.168 ± 0.12 | 0.113 ± 0.12 | 0.0741 ± 0.17 | -0.211 ± 0.056 | 1.01 ± 0.025 | 0.495 ± 0.2 | 0.134 ± 0.019 | 0.0492 ± 0.039 | 0.00497 ± 0.016 | -0.225 ± 0.025 | 1.07 ± 0.037 | 0.812 ± 0.26 | 0.0769 ± 0.069 | -0.0562 ± 0.079 | -0.034 ± 0.083 | -0.0967 ± 0.11 | 1.02 ± 0.046 | 0.799 ± 0.15 | 0.236 ± 0.22 | -0.00958 ± 0.12 | -0.0192 ± 0.12 | -0.124 ± 0.12 | 0.936 ± 0.045 | 0.845 ± 0.011 | 0.381 ± 0.15 | 0.256 ± 0.14 | 0.178 ± 0.14 | -0.223 ± 0.12 | 1.03 ± 0.031 | 0.992 ± 0.028 | 0.902 ± 0.034 | 0.429 ± 0.1 | 0.154 ± 0.043 | -0.0329 ± 0.028 |
| COc1cc2ncnc(Nc3ccc(F)c(Cl)c3)c2cc1OCCCN1CCOCC1 [gefitinib] | 1.07 ± 0.063 | 1.03 ± 0.068 | 1.019 ± 0.0099 | 1.02 ± 0.038 | 1.01 ± 0.069 | 0.897 ± 0.021 | 1.09 ± 0.064 | 1.06 ± 0.069 | 1.05 ± 0.083 | 1.04 ± 0.092 | 1.03 ± 0.069 | 0.808 ± 0.04 | 0.909 ± 0.055 | 0.74 ± 0.063 | 0.567 ± 0.076 | 0.418 ± 0.099 | 0.342 ± 0.12 | 0.048 ± 0.14 | 1.04 ± 0.075 | 0.968 ± 0.11 | 0.94 ± 0.051 | 0.909 ± 0.075 | 0.878 ± 0.05 | 0.762 ± 0.11 | 0.999 ± 0.0098 | 0.9844 ± 0.0036 | 0.984 ± 0.015 | 0.986 ± 0.014 | 0.987 ± 0.0035 | 0.849 ± 0.015 | 0.887 ± 0.052 | 0.59 ± 0.11 | 0.265 ± 0.088 | 0.122 ± 0.01 | 0.121 ± 0.024 | 0.105 ± 0.022 |
| COC1=C2C[C@@H](C)C[C@H](OC)[C@H](O)[C@@H](C)/C=C(\C)[C@H](OC(N)=O)[C@@H](OC)/C=C\C=C(/C)C(=O)NC(=CC1=O)C2=O [geldanamycin] | 0.443 ± 0.2 | 0.0763 ± 0.097 | 0.0142 ± 0.17 | -0.0565 ± 0.17 | -0.148 ± 0.15 | -0.284 ± 0.13 | 0.503 ± 0.079 | 0.134 ± 0.026 | 0.0361 ± 0.021 | 0.0592 ± 0.03 | -0.0316 ± 0.038 | -0.3 ± 0.085 | 0.0174 ± 0.11 | -0.0672 ± 0.11 | -0.0584 ± 0.085 | -0.03 ± 0.059 | -0.187 ± 0.11 | -0.441 ± 0.14 | 0.262 ± 0.1 | 0.00984 ± 0.086 | -0.0513 ± 0.1 | -0.0518 ± 0.12 | -0.114 ± 0.12 | -0.238 ± 0.1 | 0.762 ± 0.073 | 0.219 ± 0.12 | 0.143 ± 0.062 | 0.121 ± 0.071 | 0.0267 ± 0.14 | -0.11 ± 0.17 | 0.111 ± 0.066 | -0.0212 ± 0.045 | -0.0537 ± 0.053 | -0.0551 ± 0.04 | -0.0997 ± 0.049 | -0.171 ± 0.06 |
| Cc1ccc(NC(=O)c2ccc(CN3CCN(C)CC3)cc2)cc1Nc1nccc(-c2cccnc2)n1 [imatinib] | 1.01 ± 0.055 | 0.999 ± 0.032 | 1.02 ± 0.04 | 1 ± 0.045 | 1.02 ± 0.028 | 0.915 ± 0.022 | 1.06 ± 0.084 | 1.08 ± 0.088 | 1.08 ± 0.076 | 1.06 ± 0.057 | 1.04 ± 0.075 | 0.9 ± 0.039 | 1.05 ± 0.04 | 1.07 ± 0.045 | 1.04 ± 0.061 | 1.08 ± 0.046 | 1.11 ± 0.066 | 0.991 ± 0.043 | 1 ± 0.033 | 1.02 ± 0.075 | 0.99 ± 0.03 | 1.02 ± 0.037 | 0.991 ± 0.042 | 0.981 ± 0.057 | 0.997 ± 0.018 | 0.996 ± 0.011 | 1.01 ± 0.034 | 1.03 ± 0.041 | 1.05 ± 0.059 | 1.05 ± 0.11 | 1.002 ± 0.0079 | 1.001 ± 0.0023 | 0.9962 ± 0.003 | 1 ± 0.014 | 1.01 ± 0.018 | 0.998 ± 0.031 |
| CS(=O)(=O)CCNCc1ccc(-c2ccc3ncnc(Nc4ccc(OCc5cccc(F)c5)c(Cl)c4)c3c2)o1 [lapatinib] | 0.878 ± 0.033 | 0.9385 ± 0.0078 | 0.955 ± 0.01 | 0.948 ± 0.025 | 0.947 ± 0.011 | 0.62 ± 0.11 | 0.803 ± 0.12 | 0.872 ± 0.13 | 0.947 ± 0.074 | 0.936 ± 0.092 | 0.926 ± 0.051 | 0.321 ± 0.14 | 0.0194 ± 0.093 | -0.00655 ± 0.072 | -0.0149 ± 0.1 | -0.0045 ± 0.12 | 0.00322 ± 0.13 | 0.133 ± 0.035 | 0.857 ± 0.091 | 0.957 ± 0.075 | 0.965 ± 0.053 | 0.991 ± 0.062 | 0.958 ± 0.11 | 0.749 ± 0.15 | 0.982 ± 0.025 | 0.9754 ± 0.0072 | 0.976 ± 0.019 | 0.985 ± 0.015 | 1.01 ± 0.027 | 0.636 ± 0.14 | 0.975 ± 0.029 | 0.957 ± 0.034 | 0.943 ± 0.047 | 0.895 ± 0.075 | 0.747 ± 0.16 | 0.288 ± 0.17 |
| Cc1ccc(F)c(NC(=O)Nc2ccc(-c3cccc4[nH]nc(N)c34)cc2)c1 [linifanib] | 1.08 ± 0.014 | 1.09 ± 0.03 | 1.08 ± 0.045 | 1.07 ± 0.053 | 1.06 ± 0.045 | 0.192 ± 0.29 | 1.07 ± 0.12 | 0.996 ± 0.14 | 1.01 ± 0.12 | 0.939 ± 0.079 | 0.874 ± 0.061 | 0.0601 ± 0.092 | 1.11 ± 0.046 | 1.08 ± 0.025 | 1.11 ± 0.043 | 1.1 ± 0.078 | 1.09 ± 0.078 | 0.232 ± 0.072 | 1.09 ± 0.014 | 1.07 ± 0.039 | 1.07 ± 0.032 | 1.08 ± 0.026 | 1.03 ± 0.011 | 0.544 ± 0.37 | 0.995 ± 0.011 | 0.979 ± 0.011 | 0.971 ± 0.025 | 0.969 ± 0.015 | 0.9497 ± 0.0069 | 0.701 ± 0.13 | 1.039 ± 0.0077 | 1.032 ± 0.0048 | 1.02 ± 0.012 | 1.02 ± 0.014 | 0.994 ± 0.029 | 0.716 ± 0.24 |
| C[C@]1(O)C[C@@H](c2nc(-c3ccc4ccc(-c5ccccc5)nc4c3)c3c(N)nccn32)C1 [linsitinib] | 0.791 ± 0.048 | 0.843 ± 0.067 | 0.861 ± 0.085 | 0.862 ± 0.068 | 0.838 ± 0.081 | 0.697 ± 0.099 | 0.721 ± 0.014 | 0.749 ± 0.12 | 0.555 ± 0.19 | 0.449 ± 0.14 | 0.383 ± 0.091 | 0.271 ± 0.089 | 0.657 ± 0.19 | 0.765 ± 0.11 | 0.806 ± 0.067 | 0.739 ± 0.072 | 0.678 ± 0.064 | 0.538 ± 0.085 | 0.841 ± 0.032 | 0.9 ± 0.032 | 0.949 ± 0.07 | 0.924 ± 0.054 | 0.896 ± 0.05 | 0.797 ± 0.051 | 0.975 ± 0.034 | 0.979 ± 0.024 | 0.93 ± 0.019 | 0.972 ± 0.048 | 0.963 ± 0.021 | 0.831 ± 0.072 | 0.956 ± 0.055 | 0.911 ± 0.081 | 0.824 ± 0.16 | 0.783 ± 0.18 | 0.731 ± 0.2 | 0.626 ± 0.26 |

Reference: the supplement of paper PMC5662764
